Results published in US10765680B2, “Combination of a MCL-1 inhibitor and a taxane compound, uses and pharmaceutical compositions thereof” (priority 2017, dated 2020).

What was measured:
[1] = test system: TNBC PDX models 110T, 838T and PDX OD-BRE-0589; conditions: Compound 2 25 mg/kg i.v. weekly for six weeks; three TNBC PDX models
[2] = test system: MDA-MB-453 breast cancer cell line; assay: 3 days CellTiterGlo viability, checkerboard combination, MDA-MB-453; format: cell-based; conditions: single agent
Procedure: (§1) In addition, all media contained penicillin (100 IU/ml), streptomycin (100 μg/ml) and L-glutamine (2 mM).
(§2) Cell lines were cultured at 37° C. in a humidified atmosphere containing 5% CO2 and expanded in T-150 flasks. In all cases cells were thawed from frozen stocks, expanded through ≥1 passage using appropriate dilutions, counted and assessed for viability using a CASY cell counter prior to plating 150 μl/well at the densities indicated in Table 2 into 96-well plates.
(§3) Stock solutions of compounds were prepared at a concentration of 5 mM in DMSO and stored at −20° C.
(§4) In order to analyze the activity of the compounds in single agent or in combination, cells were seeded and treated with seven or eight 3.16-fold serial dilutions of each compound dispensed, either individually or in all possible permutations in a checkerboard fashion, directly into the cell assay plates as indicated in FIGS. 5 and 6. Effects of the single agents as well as their checkerboard combinations on cell viability were assessed after 3 days of incubation at 37° C./5% CO2 by quantification of cellular ATP levels using CellTiterGlo at 75 μL reagent/well. At least two independent experiments, each one performed in duplicates, were performed. Luminescence was quantified on a multipurpose plate reader.
(§5) Single agent IC50s were calculated using standard four-parametric curve fitting. Potential synergistic interactions between compound combinations were assessed using the Excess Inhibition 2D matrix according to the Loewe additivity model and are reported as Synergy Score (Lehar et al. 2009). All calculations were performed using Clalice™ Bioinformatics Software available in Horizon website.

[3] = test system: H522 lung cancer cell line; assay: 3 days CellTiterGlo viability, checkerboard combination, H522; format: cell-based; conditions: single agent
Procedure: as §1, §2, §3, §4, §5

[4] = test system: MDA-MB-468 breast cancer cell line; assay: 3 days CellTiterGlo viability, checkerboard combination, MDA-MB-468; format: cell-based; conditions: single agent
Procedure: as §1, §2, §3, §4, §5

[5] = test system: 2 breast cancer cell lines (MDA-MB-453 and MDA-MB-468) and one lung cancer cell line (H522); assay: 3 days CellTiterGlo viability, summary of the three cell lines; format: cell-based; conditions: for cell lines tested whose growth was inhibited by the single agent: three cell lines tested
Procedure: as §1, §2, §3, §4, §5

[6] = test system: SK-BR-3 cells; assay: SK-BR-3 viability (Cell Titer Glo, propidium iodide), Bliss synergy; format: cell-based; conditions: QVD-OPh 10 μM, propidium iodide staining, 72 hours
[7] = test system: A549 lung cancer cell line; assay: 72 hours CellTiter-Glo proliferation assay, A549; format: cell-based; conditions: Homo sapiens, single agent, read-out: Abs IC50
Procedure: (§6) Compounds were dissolved in 100% DMSO (Sigma, Catalog # D2438-50 ML) at a stock concentration of 10 mM and stored at −20° C. until use. Compounds were arrayed in 2 ml deep 96-well plates (Greiner bio-one, catalog number 780271) serially diluted 3-fold. Compound 1 was used over a concentration range of 0.0-10.0 μM. Paclitaxel was used over a concentration range of 0.0-1.0 μM in breast cancer cells and 0.0-2.0 μM range in lung cancer cells.
(§7) All cell lines were purchased from the American Type Culture Collection and cultured according to vendor recommendations. […] All cell lines were determined to be free of mycoplasma contamination by a PCR detection assay performed at Idexx Radil (Columbia, Mo., USA) and authenticated by SNP analysis. […] Cells were expanded to T-75 flasks and assessed for viability using a Beckman-Coulter ViCell counter prior to plating. […]
(§8) Cell proliferation was measured in 72 hours CellTiter-Glo™ (CTG) assays and all results shown are the result of at least triplicate measurements. […] After 72 hours of compound treatment the effects of compounds on cell proliferation was determined using the CellTiter-Glo™ Luminescent Cell Viability Assay (Promega, Catalog # G7573). This is a homogeneous method to determine the number of viable cells in culture based on quantitation of the ATP present, which signals the presence of metabolically active cells. […]

[8] = test system: NCI-H23 lung cancer cell line; assay: 72 hours CellTiter-Glo proliferation assay, NCI-H23; format: cell-based; conditions: Homo sapiens, single agent, read-out: Abs IC50
Procedure: as §6, §7, §8

[9] = test system: BT-474 breast cancer cell line; assay: 72 hours CellTiter-Glo proliferation assay, BT-474; format: cell-based; conditions: Homo sapiens, single agent, read-out: Abs IC50
Procedure: as §6, §7, §8

[10] = test system: MDA-MB-453 breast cancer cell line; assay: 72 hours CellTiter-Glo proliferation assay, MDA-MB-453; format: cell-based; conditions: Homo sapiens, single agent, read-out: Abs IC50
Procedure: as §6, §7, §8

[11] = test system: MDA-MB-157 breast cancer cell line; assay: 72 hours CellTiter-Glo proliferation assay, MDA-MB-157; format: cell-based; conditions: Homo sapiens, single agent, read-out: Abs IC50
Procedure: as §6, §7, §8

[12] = test system: MDA-MB-436 breast cancer cell line; assay: 72 hours CellTiter-Glo proliferation assay, MDA-MB-436; format: cell-based; conditions: Homo sapiens, single agent, read-out: Abs IC50
Procedure: as §6, §7, §8

[13] = test system: MDA-MB-231 breast cancer cell line; assay: 72 hours CellTiter-Glo proliferation assay, MDA-MB-231; format: cell-based; conditions: Homo sapiens, single agent, read-out: Abs IC50
Procedure: as §6, §7, §8

[14] = test system: HCC1500 breast cancer cell line; assay: 72 hours CellTiter-Glo proliferation assay, HCC1500; format: cell-based; conditions: single agent, read-out: Abs IC50
Procedure: as §6, §7, §8

[15] = test system: MCF7 breast cancer cell line; assay: 72 hours CellTiter-Glo proliferation assay, MCF7; format: cell-based; conditions: Homo sapiens, single agent, read-out: Abs IC50
Procedure: as §6, §7, §8

[16] = test system: HCC1954 breast cancer cell line; assay: 72 hours CellTiter-Glo proliferation assay, HCC1954; format: cell-based; conditions: Homo sapiens, single agent, read-out: Abs IC50
Procedure: as §6, §7, §8

[17] = test system: HCC38 breast cancer cell line; assay: 72 hours CellTiter-Glo proliferation assay, HCC38; format: cell-based; conditions: Homo sapiens, single agent, read-out: Abs IC50
Procedure: as §6, §7, §8

[18] = test system: NCI-H522 lung cancer cell line; assay: 72 hours CellTiter-Glo proliferation assay, NCI-H522; format: cell-based; conditions: Homo sapiens, single agent, read-out: Abs IC50
Procedure: as §6, §7, §8

[19] = test system: HCC1395 breast cancer cell line; assay: 72 hours CellTiter-Glo proliferation assay, HCC1395; format: cell-based; conditions: Homo sapiens, single agent, read-out: Abs IC50
Procedure: as §6, §7, §8

[20] = test system: HCC1937 breast cancer cell line; assay: 72 hours CellTiter-Glo proliferation assay, HCC1937; format: cell-based; conditions: Homo sapiens, single agent, read-out: Abs IC50
Procedure: as §6, §7, §8

[21] = test system: BT-20 breast cancer cell line; assay: 72 hours CellTiter-Glo proliferation assay, BT-20; format: cell-based; conditions: Homo sapiens, single agent, read-out: Abs IC50
Procedure: as §6, §7, §8

[22] = test system: MDA-MB-468 breast cancer cell line; assay: 72 hours CellTiter-Glo proliferation assay, MDA-MB-468; format: cell-based; conditions: Homo sapiens, single agent, read-out: Abs IC50
Procedure: as §6, §7, §8

[23] = test system: BT-549 breast cancer cell line; assay: 72 hours CellTiter-Glo proliferation assay, BT-549; format: cell-based; conditions: Homo sapiens, single agent, read-out: Abs IC50
Procedure: as §6, §7, §8

[24] = test system: Hs 578T breast cancer cell line; assay: 72 hours CellTiter-Glo proliferation assay, Hs 578T; format: cell-based; conditions: Homo sapiens, single agent, read-out: Abs IC50
Procedure: as §6, §7, §8

[25] = test system: MDA-MB-231 xenografts; assay: MDA-MB-231 breast xenograft model, antitumor efficacy; format: in vivo, female nude rats; conditions: paclitaxel 7.5 mg/kg iv QW
[26] = test system: HCC70 breast cancer cell line; assay: 72 hours CellTiter-Glo proliferation assay, HCC70; format: cell-based; conditions: Homo sapiens, single agent, read-out: Abs IC50
Procedure: as §6, §7, §8

[27] = test system: SK-BR-3 breast cancer cell line; assay: 72 hours CellTiter-Glo proliferation assay, SK-BR-3; format: cell-based; conditions: Homo sapiens, single agent, read-out: Abs IC50
Procedure: as §6, §7, §8

[28] = test system: Cal-148 breast cancer cell line; assay: 72 hours CellTiter-Glo proliferation assay, Cal-148; format: cell-based; conditions: Homo sapiens, single agent, read-out: Abs IC50
Procedure: as §6, §7, §8

[29] = test system: HCC1143 breast cancer cell line; assay: 72 hours CellTiter-Glo proliferation assay, HCC1143; format: cell-based; conditions: Homo sapiens, single agent, read-out: Abs IC50
Procedure: as §6, §7, §8

With `Cc1c(-c2c(-c3ccc(F)o3)sc3ncnc(O[C@H](Cc4ccccc4OCc4ccnn4CC(F)(F)F)C(=O)O)c23)ccc(OCCN2CCN(C)CC2)c1Cl` [Compound 2, (2R)-2-{[(5Sa)-5-{3-chloro-2-methyl-4-[2-(4-methylpiperazin-1-yl)ethoxy]phenyl}-6-(5-fluorofuran-2-yl)thieno[2,3-d]pyrimidin-4-yl]oxy}-3-(2-{[1-(2,2,2-trifluoroethyl)-1H-pyrazol-5-yl]methoxy}phenyl)propanoic acid] the “inhibition of tumor growth, single agent” value [1] was “insufficient in inhibiting tumor growth”, the IC50 [2] was > 2000 nM and the “Mean of Max Inh” value [2] was 21.0%. For the same compound, the “Mean of Max Inh” value ([3]; H522, 3 days) was 92.0%, the IC50 ([3]; H522 cell line) was 140 nM and the IC50 [4] was > 2000 nM. For the same compound, the “Mean of Max Inh” value [4] was 24.0% and the “cell lines tested whose growth was inhibited by the single agent” value [5] was 1/3.

With `CC(C)[C@H](NC(=O)c1ccc2ccccc2n1)C(=O)N[C@@H](CC(=O)O)C(=O)COc1c(F)cccc1F` [QVD-OPH, QVD-OPh hydrate] the “effect on cell death induced by docetaxel and Compound 2” value [6] was “efficiently blocked cell death”.

`CC(=O)O[C@H]1C(=O)[C@@]2(C)[C@H]([C@H](OC(=O)c3ccccc3)[C@]3(O)C[C@H](OC(=O)[C@H](O)[C@@H](NC(=O)c4ccccc4)c4ccccc4)C(C)=C1C3(C)C)[C@]1(OC(C)=O)CO[C@@H]1C[C@@H]2O` [Paclitaxel, paclitaxel, reference compound] was tested, and the IC50 [7] was 0.163 nM, the IC50 [8] was 0.22 nM and the IC50 [9] was 1.7 nM. For the same compound, the IC50 [10] was 4.2 nM, the IC50 [11] was > 1000 nM and the IC50 [12] was 14.7 nM. The IC50 [13] was 17.5 nM, the IC50 [14] was > 1000 nM and the IC50 [15] was 10.4 nM. It also gave an IC50 [16] of 6.5 nM, an IC50 [17] of 4.33 nM and an IC50 [18] of 0.48 nM. The IC50 [19] was 8.03 nM, the IC50 ([2]; Homo sapiens, 72 h) was > 1000 nM and the “Mean of Max Inh” value [2] was 37.0%. The IC50 [20] was 11.6 nM, the IC50 [21] was 5.97 nM and the IC50 [22] was 3.07 nM. For the same compound, the “Mean of Max Inh” value ([3]; H522, 3 days) was 61.0%, the IC50 ([3]; Homo sapiens, NCI-H522, 72 h, H522, 3 days) was 0.2 nM and the IC50 [23] was 8.82 nM. The IC50 ([4]; Homo sapiens, 72 h) was 0.9 nM, the “Mean of Max Inh” value [4] was 75.0% and the IC50 [24] was 0.363 nM. For the same compound, the T/C % [25] was 34%, the IC50 ([5]; single agent, 2/3 lines tested, read-out: IC50 in the cell lines inhibited) was < 1 nM and the “cell lines tested whose growth was inhibited by the single agent” value [5] was 2/3. The IC50 [26] was 8.39 nM, the IC50 [27] was 2.66 nM and the IC50 [28] was 4.25 nM. For the same compound, the IC50 [29] was 9.43 nM.
